Experimental data taken from patent publication US11225474B2, “Crystalline salt forms of 3-(1,2,4-triazolo[4,3-a]pyridine-3-ylethynyl)-4-methyl-N-(4-((4-methylpiperazin-1-yl)methyl)-3-trifluoromethylphenyl)benzamide for medical application” (priority 2016, dated 2022).
pIC50: −log10 of the molar value.

Tests used:
physchem = type: physicochemical
[1] = Stability, 7 days at T = 60° C.; type: physicochemical
[2] = Dissolution kinetics (USP Apparatus 1 Basket Method); type: physicochemical; details: distilled water, 37±1° C., 118 mg salt
Experimental: During further studies of the polymorphous modifications of the methanesulfonic acid salt of 3-(1,2,4-triazolo[4,3-a]pyridine-3-ylethynyl)-4-methyl-N-(4-((4-methylpiperazine-1-yl)methyl)-3-trifluoromethylphenyl)benzamide, the kinetics of dissolution of the free base and the two methanesulfonic acid salt form polymorphous modifications was studied. Dissolution kinetics studies were performed using USP Apparatus 1 Basket Method (USP40, General Chapter <711>. Dissolution), dissolution media volume—700 mL, temperature—37±1° C. paddle stirrers' rotation rate—100 rpm. The test sample dissolution rate was calculated as an average of six repeats. Distilled water was used as the dissolution medium for the polymorphous modifications of 3-(1,2,4-triazolo[4,3-a]pyridine-3-ylethynyl)-4-methyl-N-(4-((4-methylpiperazine-1-yl)methyl)-3-trifluoromethylphenyl)benzamide methanesulfonic acid salt and, and a solution of 12.2 mL of methanesulfonic acid in 500 mL of water was used as the dissolution medium for the free base. Test portions containing 100 mg of 3-(1,2,4-triazolo[4,3-a]pyridine-3-ylethynyl)-4-methyl-N-(4-((4-methylpiperazine-1-yl)methyl)-3-trifluoromethylphenyl)benzamide or 118 mg of 3-(1,2,4-triazolo[4,3-a]pyridine-3-ylethynyl)-4-methyl-N-(4-((4-methylpiperazine-1-yl)methyl)-3-trifluoromethylphenyl)benzamide methanesulfonic acid salt (100 mg calculated as free base) were used for dissolution. In 780 minutes (13 hours) after the beginning of the test, pH of prepared solutions was measured.

[3] = tested on: Sca1+ marrow cells, expressing p185-T315I^BCR/ABL; assay: BCR/ABL-induced chronic myelogenous leukemia model; type: in vivo, C57BL/6N line mice; details: for Average life: oral, control 55.0 ± 6.3
Experimental: To assess the efficacy of the free base and methanesulfonic acid salt of 3-(1,2,4-triazolo[4,3-a]pyridine-3-ylethynyl)-4-methyl-N-(4-((4-methylpiperazine-1-yl)methyl)-3-trifluoromethylphenyl)benzamide for treating chronic myelogenous leukemia (CML) studies of the compounds' activity on the BCR/ABL-induced CML-like disease in mice were conducted. In the study C57BL/6N line mice were used. […] The efficacy of therapy with 3-(1,2,4-triazolo[4,3-a]pyridine-3-ylethynyl)-4-methyl-N-(4-((4-methylpiperazine-1-yl)methyl)-3-trifluoromethylphenyl)benzamide administered orally as a free base and methanesulfonic acid salt was studied.

BLK = BLK (Homo sapiens, UniProt P51451); assay: Human kinase panel at 100 nM; type: biochemical
Chain of BLK (P51451 whole entry): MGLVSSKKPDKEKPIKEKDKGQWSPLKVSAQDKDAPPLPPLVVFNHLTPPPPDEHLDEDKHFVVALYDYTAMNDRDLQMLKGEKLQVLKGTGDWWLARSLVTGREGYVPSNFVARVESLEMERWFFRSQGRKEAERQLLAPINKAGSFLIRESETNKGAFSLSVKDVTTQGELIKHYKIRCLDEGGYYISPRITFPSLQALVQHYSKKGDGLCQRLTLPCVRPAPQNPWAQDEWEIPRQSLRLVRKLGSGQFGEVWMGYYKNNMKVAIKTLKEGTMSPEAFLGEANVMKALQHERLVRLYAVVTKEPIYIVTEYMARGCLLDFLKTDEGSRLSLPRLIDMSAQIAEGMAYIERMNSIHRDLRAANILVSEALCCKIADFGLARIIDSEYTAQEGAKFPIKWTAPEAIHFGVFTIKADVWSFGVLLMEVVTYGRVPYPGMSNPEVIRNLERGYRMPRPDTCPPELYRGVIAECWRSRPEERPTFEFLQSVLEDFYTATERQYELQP

EPHA2 = EPHA2 (Homo sapiens, UniProt P29317); assay: Human kinase panel at 100 nM; type: biochemical
Chain of EPHA2 (P29317 24-976): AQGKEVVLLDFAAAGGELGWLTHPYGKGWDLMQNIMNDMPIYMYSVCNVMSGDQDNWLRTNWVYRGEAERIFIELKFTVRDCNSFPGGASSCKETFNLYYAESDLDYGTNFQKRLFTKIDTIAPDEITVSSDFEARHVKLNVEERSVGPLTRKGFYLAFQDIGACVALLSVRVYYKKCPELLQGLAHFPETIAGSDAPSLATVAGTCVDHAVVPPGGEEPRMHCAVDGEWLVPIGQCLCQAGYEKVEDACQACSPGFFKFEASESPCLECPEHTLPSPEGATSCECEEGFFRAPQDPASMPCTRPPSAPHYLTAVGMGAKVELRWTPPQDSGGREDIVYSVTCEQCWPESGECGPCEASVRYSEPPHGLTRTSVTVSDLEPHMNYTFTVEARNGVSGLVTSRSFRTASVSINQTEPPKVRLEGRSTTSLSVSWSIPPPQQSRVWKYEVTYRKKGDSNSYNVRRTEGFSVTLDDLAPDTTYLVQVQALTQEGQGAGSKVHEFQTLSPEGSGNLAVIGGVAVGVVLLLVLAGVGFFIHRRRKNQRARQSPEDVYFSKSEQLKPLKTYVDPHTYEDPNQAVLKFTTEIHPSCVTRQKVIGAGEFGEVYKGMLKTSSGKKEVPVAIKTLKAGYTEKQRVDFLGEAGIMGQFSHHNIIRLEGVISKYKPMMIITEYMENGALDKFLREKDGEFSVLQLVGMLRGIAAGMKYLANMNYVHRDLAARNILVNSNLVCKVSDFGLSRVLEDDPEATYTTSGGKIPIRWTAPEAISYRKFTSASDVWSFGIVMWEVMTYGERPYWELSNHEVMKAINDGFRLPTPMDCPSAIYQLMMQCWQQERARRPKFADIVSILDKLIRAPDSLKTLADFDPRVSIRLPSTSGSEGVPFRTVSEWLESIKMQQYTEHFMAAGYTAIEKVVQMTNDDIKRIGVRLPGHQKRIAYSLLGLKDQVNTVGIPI

EPHB2 = EPHB2 (Homo sapiens, UniProt P29323); assay: Human kinase panel at 100 nM; type: biochemical
KDR/VEGFR2 = KDR/VEGFR2 (Homo sapiens, UniProt P35968); assay: Human kinase panel at 100 nM; type: biochemical
PDGFRb = PDGFRb (Homo sapiens, UniProt P09619); assay: Human kinase panel at 100 nM; type: biochemical
Chain of PDGFRb (P09619 33-1106): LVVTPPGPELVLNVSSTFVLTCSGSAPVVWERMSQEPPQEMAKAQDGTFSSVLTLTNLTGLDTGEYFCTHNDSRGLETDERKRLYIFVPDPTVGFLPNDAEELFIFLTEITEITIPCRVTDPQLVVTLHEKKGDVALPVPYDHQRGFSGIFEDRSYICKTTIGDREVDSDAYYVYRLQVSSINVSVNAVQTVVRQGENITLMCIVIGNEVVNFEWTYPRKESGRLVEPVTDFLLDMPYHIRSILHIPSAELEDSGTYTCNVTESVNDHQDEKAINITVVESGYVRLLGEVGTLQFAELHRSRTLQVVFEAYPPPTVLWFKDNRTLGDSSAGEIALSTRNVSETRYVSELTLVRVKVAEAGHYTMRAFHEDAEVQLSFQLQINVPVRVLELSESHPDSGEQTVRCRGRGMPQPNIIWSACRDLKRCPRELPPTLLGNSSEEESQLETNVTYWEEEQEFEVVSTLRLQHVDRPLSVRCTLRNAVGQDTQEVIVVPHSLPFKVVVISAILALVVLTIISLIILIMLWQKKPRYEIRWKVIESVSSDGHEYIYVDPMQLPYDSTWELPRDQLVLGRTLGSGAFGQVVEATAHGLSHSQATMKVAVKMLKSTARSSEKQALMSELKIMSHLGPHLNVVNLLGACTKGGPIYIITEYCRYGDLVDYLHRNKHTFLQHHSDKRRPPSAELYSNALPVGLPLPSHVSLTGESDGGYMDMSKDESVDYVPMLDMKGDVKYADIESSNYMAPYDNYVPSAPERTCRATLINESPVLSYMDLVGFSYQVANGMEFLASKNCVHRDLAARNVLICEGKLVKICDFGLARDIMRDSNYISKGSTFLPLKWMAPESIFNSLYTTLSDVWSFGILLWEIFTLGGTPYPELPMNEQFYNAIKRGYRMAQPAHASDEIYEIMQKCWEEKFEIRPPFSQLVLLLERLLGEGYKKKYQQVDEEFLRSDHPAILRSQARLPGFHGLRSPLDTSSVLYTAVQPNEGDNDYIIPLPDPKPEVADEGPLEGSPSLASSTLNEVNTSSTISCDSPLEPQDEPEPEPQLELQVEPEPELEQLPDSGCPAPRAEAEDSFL

K562 = assay: Cytotoxicity, Ph+ CML model cell line; type: cell-based; details: Homo sapiens, read-out: IC50 (toxicity)
SupB15 = assay: Cytotoxicity, Ph+ ALL model cell line; type: cell-based; details: Homo sapiens, SUP-B15, read-out: IC50 (toxicity)
BaF3/BCR-ABL Y253F = assay: Toxicity to transduced BaF3 model tumor cell line; type: cell-based, murine; details: Mus musculus
BaF3/BCR-ABL E255K = assay: Toxicity to transduced BaF3 model tumor cell line; type: cell-based, murine; details: Mus musculus
BaF3/BCR-ABL T315I = assay: Toxicity to transduced BaF3 model tumor cell line; type: cell-based, murine; details: Mus musculus
MDA-MB-468 = assay: Cytotoxicity, breast cancer line; type: cell-based, human
SR = assay: Cytotoxicity, lymphoma line; type: cell-based, human
EL4 = assay: Cytotoxicity, lymphoma line; type: cell-based, human
CYP1A2 = CYP1A2 (Homo sapiens, UniProt P05177); assay: Metabolism study using cytochrome enzyme drugs; type: in vitro ADME
Chain of CYP1A2 (P05177 whole entry): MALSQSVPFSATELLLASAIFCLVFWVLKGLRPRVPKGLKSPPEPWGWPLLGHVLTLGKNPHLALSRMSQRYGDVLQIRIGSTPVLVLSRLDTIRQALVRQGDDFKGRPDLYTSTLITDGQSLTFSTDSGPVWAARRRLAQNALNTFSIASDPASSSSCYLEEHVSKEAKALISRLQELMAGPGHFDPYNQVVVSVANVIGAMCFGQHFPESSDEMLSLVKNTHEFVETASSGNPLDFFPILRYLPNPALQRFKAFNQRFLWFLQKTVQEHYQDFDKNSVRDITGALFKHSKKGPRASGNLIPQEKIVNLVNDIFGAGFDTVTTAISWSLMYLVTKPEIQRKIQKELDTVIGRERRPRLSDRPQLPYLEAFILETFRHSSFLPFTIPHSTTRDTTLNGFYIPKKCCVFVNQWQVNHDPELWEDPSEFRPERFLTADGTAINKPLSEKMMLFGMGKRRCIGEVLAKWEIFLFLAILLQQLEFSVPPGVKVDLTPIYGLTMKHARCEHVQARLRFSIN

CYP2C8 = CYP2C8 (Homo sapiens, UniProt P10632); assay: Metabolism study using cytochrome enzyme drugs; type: in vitro ADME; details: 2C8
Chain of CYP2C8 (P10632 whole entry): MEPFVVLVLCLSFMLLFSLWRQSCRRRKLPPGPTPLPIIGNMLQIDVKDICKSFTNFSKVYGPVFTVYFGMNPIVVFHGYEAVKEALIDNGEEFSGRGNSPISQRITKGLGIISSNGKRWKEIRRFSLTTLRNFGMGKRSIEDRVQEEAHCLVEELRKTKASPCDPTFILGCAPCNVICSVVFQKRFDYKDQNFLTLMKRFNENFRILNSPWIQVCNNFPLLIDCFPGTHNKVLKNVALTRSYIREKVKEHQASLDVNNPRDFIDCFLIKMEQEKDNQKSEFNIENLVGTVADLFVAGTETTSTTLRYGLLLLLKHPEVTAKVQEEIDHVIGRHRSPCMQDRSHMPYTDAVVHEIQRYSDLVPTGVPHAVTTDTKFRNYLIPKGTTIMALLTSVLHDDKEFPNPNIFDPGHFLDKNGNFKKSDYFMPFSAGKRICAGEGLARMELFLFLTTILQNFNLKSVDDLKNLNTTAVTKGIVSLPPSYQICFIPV

potassium hERG channel = potassium hERG channel (Homo sapiens, UniProt Q12809); assay: Effect on the ion hERG channel; type: cell-based; details: tested at 0.1-10 μM, mesylate salt
Chain of potassium hERG channel (Q12809 whole entry): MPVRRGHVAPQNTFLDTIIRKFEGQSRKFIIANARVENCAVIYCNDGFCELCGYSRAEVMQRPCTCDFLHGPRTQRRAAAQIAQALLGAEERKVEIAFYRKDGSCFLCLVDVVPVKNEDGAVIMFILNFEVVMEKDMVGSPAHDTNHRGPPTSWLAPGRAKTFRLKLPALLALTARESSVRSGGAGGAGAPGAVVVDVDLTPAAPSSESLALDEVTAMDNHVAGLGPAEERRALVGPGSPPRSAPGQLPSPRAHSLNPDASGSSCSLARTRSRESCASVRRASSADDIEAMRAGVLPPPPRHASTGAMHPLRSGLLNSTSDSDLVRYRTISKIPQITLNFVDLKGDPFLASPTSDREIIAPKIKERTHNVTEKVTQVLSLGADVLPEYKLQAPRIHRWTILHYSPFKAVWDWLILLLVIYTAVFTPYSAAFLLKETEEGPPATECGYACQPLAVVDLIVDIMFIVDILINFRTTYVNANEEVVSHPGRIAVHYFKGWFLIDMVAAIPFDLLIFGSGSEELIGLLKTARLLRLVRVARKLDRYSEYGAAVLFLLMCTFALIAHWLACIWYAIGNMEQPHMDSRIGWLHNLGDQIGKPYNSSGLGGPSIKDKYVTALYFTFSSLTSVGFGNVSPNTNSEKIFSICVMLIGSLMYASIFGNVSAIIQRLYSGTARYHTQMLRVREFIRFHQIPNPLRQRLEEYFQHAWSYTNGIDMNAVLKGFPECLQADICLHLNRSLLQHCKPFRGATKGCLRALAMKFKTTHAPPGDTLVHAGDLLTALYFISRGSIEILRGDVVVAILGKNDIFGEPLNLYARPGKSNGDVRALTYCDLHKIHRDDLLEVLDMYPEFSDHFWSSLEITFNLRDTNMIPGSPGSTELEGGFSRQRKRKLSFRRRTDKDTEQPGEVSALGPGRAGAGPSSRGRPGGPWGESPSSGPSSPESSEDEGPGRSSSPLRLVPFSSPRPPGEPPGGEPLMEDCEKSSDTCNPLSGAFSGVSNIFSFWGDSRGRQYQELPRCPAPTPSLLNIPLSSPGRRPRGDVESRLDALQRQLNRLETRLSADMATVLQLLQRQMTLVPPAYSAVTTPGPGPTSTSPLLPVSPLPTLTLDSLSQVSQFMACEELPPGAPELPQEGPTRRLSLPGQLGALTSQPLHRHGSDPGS

rats = assay: Acute toxicity studies, rats; type: in vivo
Guinea pigs and mice = assay: Allergenic properties (anaphylaxis, ITH, DTH and related models); type: in vivo, Guinea pig; mice; details: all models studied
From the text: To identify allergenic properties, the following methods were used: evaluation of anaphylactogenic activity using Guinea pig general systemic anaphylaxis and active cutaneous anaphylaxis models; evaluation of immediate-type hypersensitivity (ITH) reaction and delayed-type hypersensitivity (DTH) reaction in Guinea pigs following epicutaneous and conjunctival drug application; evaluation of DTH reaction in mice; study of the inflammation reaction to A concanavalin in mice; measuring of eosinophil blood count, evaluation of the effect on phagocyte neutrophil activity (Nitro Blue-Tetrazolium Test (NBT)), and leukocyte specific lysis reaction scenario using a Guinea pig model with subcutaneous administration of the drug.

murine marrow cells = assay: Gene toxicity: metaphase chromosome aberration assay; type: in vivo; details: all doses tested
A549 = details: oral, 25 mg/kg (21 mg/kg as free base), 20 days
Experimental: Thymus-deprived male mice were used in the studies. A549 (1×10^7 cells) were injected with 0.2 mL of matrigel solution (BD Pharmingen) into the left leg of a mouse under ketamine/xylazine anesthesia. In a week after the injections, mice were distributed between therapeutic and control groups that were randomized by tumor size. Oral administration of the methanesulfonic acid salt of 3-(1,2,4-triazolo[4,3-a]pyridine-3-ylethynyl)-4-methyl-N-(4-((4-methylpiperazine-1-yl)methyl)-3-trifluoromethylphenyl)benzamide at a dose of 25 mg/kg (equivalent to 21 mg/kg calculated as the free base) was started on the next day after randomization and continued for 20 days. To determine the efficacy of tumor growth inhibition, the average size ratio was calculated for the therapeutic/control groups (% T/C).

Bcr-Abl = Bcr-Abl (Homo sapiens, UniProt P00519); assay: Bcr-Abl tyrosine kinase enzyme activity
Bcr-Abl (T315I) = Bcr-Abl (T315I) (Homo sapiens, UniProt P00519, T315I, form not given); assay: Bcr-Abl tyrosine kinase enzyme activity; details: 3 independent experiments
Bcr-Abl (E255K) = Bcr-Abl (E255K) (Homo sapiens, UniProt P00519, E255K, form not given); assay: Bcr-Abl tyrosine kinase enzyme activity
Bcr-Abl (G250E) = Bcr-Abl (G250E) (Homo sapiens, UniProt P00519, G250E, form not given); assay: Bcr-Abl tyrosine kinase enzyme activity
Bcr-Abl (M351T) = Bcr-Abl (M351T) (Homo sapiens, UniProt P00519, M351T, form not given); assay: Bcr-Abl tyrosine kinase enzyme activity
Bcr-Abl (Q252H) = Bcr-Abl (Q252H) (Homo sapiens, UniProt P00519, Q252H, form not given); assay: Bcr-Abl tyrosine kinase enzyme activity
Bcr-Abl (Y253F) = Bcr-Abl (Y253F) (Homo sapiens, UniProt P00519, Y253F, form not given); assay: Bcr-Abl tyrosine kinase enzyme activity

With `CS(=O)(=O)O.Cc1ccc(C(=O)Nc2ccc(CN3CCN(C)CC3)c(C(F)(F)F)c2)cc1C#Cc1nnc2ccccn12` [methanesulfonic acid salt, 3-(1,2,4-triazolo[4,3-a]pyridine-3-ylethynyl)-4-methyl-N-(4-((4-methylpiperazin-1-yl)methyl)-3-trifluoromethylphenyl)benzamide mono methanesulfonic acid salt] the Apparent solubility (physchem) was over 46 mg/mL, the solubility (physchem; deionized water, RT, read-out: Apparent solubility) was over 46 mg/mL and the “Crystallinity in 7 days” value ([1]; 7 days at T = 60° C.) was “Cryst”. For the same compound, the “Relative peak area, in 7 days” value ([1]; 7 days at T = 60° C.) was 99.7%, the “Relative peak area, initial” value ([1]; before storage) was 99.7% and the content of impurities ([1]; kept seven days at 60° C.) was “remained constant”. For the same compound, the “time for 95% to transfer to the solution” value [2] was “less than one minute”, the “time to full dissolution” value [2] was “less than 4 minutes” and the “therapeutic effect compared with the free base” value ([3]; 40 mg/kg (34 mg/kg as free base)) was “same therapeutic effect as administration of 50 mg/kg of a free base”. For the same compound, the “increase of animals' lives compared to the control group” value ([3]; 59 mg/kg (50 mg/kg as free base)) was “almost two-fold increase”, the Average life ([3]; 10 mg/kg salt (8.5 as free base)) was 65.5 ± 6.7 days and the Average life ([3]; 25 mg/kg salt (21 as free base)) was 73.9 ± 7.1 days. The Average life ([3]; 40 mg/kg salt (34 as free base)) was 90.3 ± 6.9 days, the Average life ([3]; 59 mg/kg salt (50 as free base)) was 104.5 ± 5.2 days and the inhibition at 0.1 µM (BLK) was over 50%. For the same compound, the inhibition at 0.1 µM (EPHA2) was over 50%, the inhibition at 0.1 µM (EPHB2) was over 50% and the inhibition at 0.1 µM (KDR/VEGFR2) was over 50%. The inhibition at 0.1 µM (PDGFRb) was over 50%, the pIC50 (K562) was 8.10 and the pIC50 (SupB15) was 7.30. For the same compound, the pIC50 (BaF3/BCR-ABL Y253F) was 7.60, the pIC50 (BaF3/BCR-ABL E255K) was 7.60 and the pIC50 (BaF3/BCR-ABL T315I) was 7.12. The cytotoxicity (MDA-MB-468) was “showed cytotoxicity”, the cytotoxicity (SR) was “showed cytotoxicity” and the cytotoxicity (EL4) was “showed cytotoxicity”. The “participation of the isoform in metabolism” value (CYP1A2) was “does not involve”, the “participation of the isoform in metabolism” value (CYP2C8) was “does not involve” and the pIC50 (potassium hERG channel) was 5.11. The LD10 (rats; calculated as a free base) was 1,695 mg/kg, the LD10 (rats; dose of the salt) was 2,000 mg/kg and the allergenic activity (Guinea pigs and mice) was “did not display any detectable allergenic activity”. For the same compound, the genotoxic effects (murine marrow cells) was “had no genotoxic effects”, the “T/C (average tumor size ratio therapeutic/control)” value (A549) was under 35% and the “hemagglutinin and hemolysin levels in the blood” value (mice; intragastric administration (21 days), mice) was “had no effect on the hemagglutinin and hemolysin levels in the blood”. The “toxic immune effect (overall)” value (mice; mice) was “had no toxic immune effect”, the rosette test (mice; mouse, in vivo) was “no effect in the rosette test” and the “hemagglutinin and hemolysin level in the blood” value (mice; single intragastric administration, mice) was “had no effect on the hemagglutinin and hemolysin level in the blood”. For the same compound, the pIC50 (Bcr-Abl) was 8.51 to 9.31, the pIC50 (Bcr-Abl (T315I)) was 7.68 to 9.11 and the pIC50 (Bcr-Abl (E255K)) was 8.02. The pIC50 (Bcr-Abl (G250E)) was 8.13, the pIC50 (Bcr-Abl (M351T)) was 8.55 and the pIC50 (Bcr-Abl (Q252H)) was 7.92. It also gave a pIC50 (Bcr-Abl (Y253F)) of 8.39.
